Reference: patent publication US7981892B2, “Disubstituted phthalazine hedgehog pathway antagonists” (Eli Lilly and Company, priority 2008, dated 2011)
Structures can show the parent of a compound that is named as a salt.

System: Gli1 transcript in Daoy cells stimulated with Shh conditioned media
Assay: Functional assay for measuring the inhibition of Gli1 in Daoy cells (bDNA assay of Gli1 transcript after Shh-conditioned media stimulation)
Type: cell-based
Settings: Homo sapiens; Daoy cells treated with Shh-CM, 24 hours incubation with compound, Gli1 transcript by bDNA luminescence
Experimental: Biological activity is determined using a functional assay in Daoy neuronal cancer cells and measures levels of Gli1 ribonucleic, acid via a bDNA. (branched deoxyribonucleic acid) assay system (Panomies, Inc., Fremont, Calif.), Gli was originally discovered in a Glioblastoma cell line and encodes a zinc finger protein that is activated by Shh signaling. The maximum response is obtained by inducing Gli1 transcription in the Daoy cells with conditioned medium (HEK-293 cells stably expressing recombinant Shb) for 24 hours and. then measuring the amount of stimulated Gli1 transcript. […]
The bDNA assay system utilizes the technology of branched-chain DNA to allow amplification of a target ribonucleic acid (transcript). […] The addition of a chemilumigenic substrate during the amplification step allows for detection using luminescence, […]
Daoy cells are grown to conflunency in tissue culture T225-flasks in Daoy growth media containing Minimum Essential Medium (MEM) plus 10% Fetal Bovine Serum (FBS) with […] non-essential amino acids and 1 mM sodium pyruvate. The cells are removed from the T225-flasks using trypsin ethylenediaminetetraacetic acid (EDTA), centrifuged, resuspended in media, and then counted. […]

IC50: ~2.37 nM
SMILES: CN(C(=O)c1c(F)cccc1C(F)(F)F)C1CCN(c2nnc(-c3ccccc3)c3ccccc23)CC1 [Example 36, 2-Fluoro-N-methyl-N-(1-(4-phenylphthalazin-1-yl)piperidin-4-yl)-6-(trifluoromethyl)benzamide hydrochloride]
